Residue numbers refer to the chain shown, from its start.
How the values were obtained:
Ab1 (h) = biological target: T1, Ab1 (h) (Homo sapiens, UniProt P00519); experiment: Radioisotope labeling kinase assay (Eurofins), Ab1; format: biochemical; details: 1 μM compound; read-out: Inhibitory activity per unit concentration/Activity % Ab1 (h)
T1 construct: purchased Eurofins
Procedure: (§1) An activity to a human recombinant protein kinase of a series of compounds was determined by a radioisotope labeling method, which was provided by Eurofins Company. A compound to be detected was mixed with a corresponding protein kinase buffer (20 mM propyl sulfonate (MOPS, […].), 1 mM EDTA, 0.10 β-mercaptoethanol, 0.010 Brij-35, […], and 1 mg/mL BSA), the mixture was added into a reaction system (100 μM reaction substrate […], 8 mM MOPS with a pH value of 7.0, 10 mM MgAcetate, 0.2 mM EDTA, and a certain concentration of γ-^33P-ATP). After adding an MgATP composite solution, the reaction was started at room temperature for 40 minutes, and the reaction was terminated by adding 5 μl of […] solution. Then, 10 μl of reaction solution was dropwise added onto a filter and washed with 75 mM phosphoric acid solution for three times, 5 minutes each time, then washed with methanol once again, and dried and subjected to scintillation counting.

BTK (h) = biological target: T2, BTK (h) (Homo sapiens, UniProt Q06187); experiment: Radioisotope labeling kinase assay (Eurofins), BTK; format: biochemical; details: 1 μM compound; read-out: Inhibitory activity per unit concentration/Activity % BTK (h)
T2 construct: purchased Eurofins
T2 sequence (Q06187 whole entry): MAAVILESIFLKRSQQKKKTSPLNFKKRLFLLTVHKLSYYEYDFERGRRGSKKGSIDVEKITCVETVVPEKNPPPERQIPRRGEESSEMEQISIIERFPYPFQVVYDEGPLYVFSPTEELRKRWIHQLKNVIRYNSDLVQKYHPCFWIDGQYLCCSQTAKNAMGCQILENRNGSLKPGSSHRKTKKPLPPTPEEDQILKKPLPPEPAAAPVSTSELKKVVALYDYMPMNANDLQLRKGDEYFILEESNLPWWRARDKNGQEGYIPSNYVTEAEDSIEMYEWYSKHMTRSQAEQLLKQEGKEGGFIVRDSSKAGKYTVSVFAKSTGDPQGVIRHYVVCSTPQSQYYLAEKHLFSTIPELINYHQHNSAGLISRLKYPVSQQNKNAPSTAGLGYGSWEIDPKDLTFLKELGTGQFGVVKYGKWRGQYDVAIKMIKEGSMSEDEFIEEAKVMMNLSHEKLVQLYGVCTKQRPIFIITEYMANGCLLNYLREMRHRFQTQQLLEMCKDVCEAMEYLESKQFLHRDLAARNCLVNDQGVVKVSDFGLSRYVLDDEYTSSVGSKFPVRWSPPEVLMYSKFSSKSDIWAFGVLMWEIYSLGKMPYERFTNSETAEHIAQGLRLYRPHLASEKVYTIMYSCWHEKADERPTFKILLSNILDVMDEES
Procedure: as §1

Flt3 (D835Y) (h) = biological target: T3, Flt3 (D835Y) (h) (Homo sapiens, UniProt P36888, D835Y); experiment: Radioisotope labeling kinase assay (Eurofins), Flt3 (D835Y); format: biochemical; details: 1 μM compound; read-out: Inhibitory activity per unit concentration/Activity % Flt3 (D835Y) (h)
T3 construct: purchased Eurofins
T3 sequence (P36888 27-993 D835Y): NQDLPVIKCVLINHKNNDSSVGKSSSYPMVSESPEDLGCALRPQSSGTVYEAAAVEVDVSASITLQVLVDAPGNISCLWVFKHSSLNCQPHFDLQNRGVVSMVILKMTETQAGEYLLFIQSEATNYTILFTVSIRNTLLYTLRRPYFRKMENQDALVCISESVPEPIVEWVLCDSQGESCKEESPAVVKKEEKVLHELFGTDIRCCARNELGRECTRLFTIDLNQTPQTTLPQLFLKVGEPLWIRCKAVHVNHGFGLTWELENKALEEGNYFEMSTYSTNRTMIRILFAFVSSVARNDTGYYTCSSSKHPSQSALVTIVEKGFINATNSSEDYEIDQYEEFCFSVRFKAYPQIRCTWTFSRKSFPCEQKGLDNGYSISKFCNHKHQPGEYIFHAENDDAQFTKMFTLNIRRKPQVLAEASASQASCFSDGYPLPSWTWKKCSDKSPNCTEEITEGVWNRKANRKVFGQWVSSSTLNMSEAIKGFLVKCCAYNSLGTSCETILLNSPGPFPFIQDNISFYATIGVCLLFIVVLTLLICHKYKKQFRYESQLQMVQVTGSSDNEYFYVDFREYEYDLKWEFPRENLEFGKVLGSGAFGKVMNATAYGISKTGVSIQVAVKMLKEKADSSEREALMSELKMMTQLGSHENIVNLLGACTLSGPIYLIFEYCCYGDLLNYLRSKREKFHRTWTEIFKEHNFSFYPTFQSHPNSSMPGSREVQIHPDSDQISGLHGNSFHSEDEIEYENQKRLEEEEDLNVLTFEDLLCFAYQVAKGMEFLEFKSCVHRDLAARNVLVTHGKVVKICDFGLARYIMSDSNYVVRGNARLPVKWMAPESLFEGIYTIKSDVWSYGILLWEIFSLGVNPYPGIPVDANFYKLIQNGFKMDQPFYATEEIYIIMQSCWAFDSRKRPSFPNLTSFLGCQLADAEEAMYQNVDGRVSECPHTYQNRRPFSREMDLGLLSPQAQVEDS
Procedure: as §1

Flt3 (h) = biological target: T4, Flt3 (h) (Homo sapiens, UniProt P36888); experiment: Radioisotope labeling kinase assay (Eurofins), Flt3; format: biochemical; details: 1 μM compound; read-out: Inhibitory activity per unit concentration/Activity % Flt3 (h)
T4 construct: purchased Eurofins
T4 sequence (P36888 27-993): T3 sequence (P36888 27-993 D835Y) with Y809D
Procedure: as §1

JAK3 (h) = biological target: T5, JAK3 (h) (Homo sapiens, UniProt P52333); experiment: Radioisotope labeling kinase assay (Eurofins), JAK3; format: biochemical; details: 1 μM compound; read-out: Inhibitory activity per unit concentration/Activity % JAK3 (h)
T5 construct: purchased Eurofins
T5 sequence (P52333 1-1124): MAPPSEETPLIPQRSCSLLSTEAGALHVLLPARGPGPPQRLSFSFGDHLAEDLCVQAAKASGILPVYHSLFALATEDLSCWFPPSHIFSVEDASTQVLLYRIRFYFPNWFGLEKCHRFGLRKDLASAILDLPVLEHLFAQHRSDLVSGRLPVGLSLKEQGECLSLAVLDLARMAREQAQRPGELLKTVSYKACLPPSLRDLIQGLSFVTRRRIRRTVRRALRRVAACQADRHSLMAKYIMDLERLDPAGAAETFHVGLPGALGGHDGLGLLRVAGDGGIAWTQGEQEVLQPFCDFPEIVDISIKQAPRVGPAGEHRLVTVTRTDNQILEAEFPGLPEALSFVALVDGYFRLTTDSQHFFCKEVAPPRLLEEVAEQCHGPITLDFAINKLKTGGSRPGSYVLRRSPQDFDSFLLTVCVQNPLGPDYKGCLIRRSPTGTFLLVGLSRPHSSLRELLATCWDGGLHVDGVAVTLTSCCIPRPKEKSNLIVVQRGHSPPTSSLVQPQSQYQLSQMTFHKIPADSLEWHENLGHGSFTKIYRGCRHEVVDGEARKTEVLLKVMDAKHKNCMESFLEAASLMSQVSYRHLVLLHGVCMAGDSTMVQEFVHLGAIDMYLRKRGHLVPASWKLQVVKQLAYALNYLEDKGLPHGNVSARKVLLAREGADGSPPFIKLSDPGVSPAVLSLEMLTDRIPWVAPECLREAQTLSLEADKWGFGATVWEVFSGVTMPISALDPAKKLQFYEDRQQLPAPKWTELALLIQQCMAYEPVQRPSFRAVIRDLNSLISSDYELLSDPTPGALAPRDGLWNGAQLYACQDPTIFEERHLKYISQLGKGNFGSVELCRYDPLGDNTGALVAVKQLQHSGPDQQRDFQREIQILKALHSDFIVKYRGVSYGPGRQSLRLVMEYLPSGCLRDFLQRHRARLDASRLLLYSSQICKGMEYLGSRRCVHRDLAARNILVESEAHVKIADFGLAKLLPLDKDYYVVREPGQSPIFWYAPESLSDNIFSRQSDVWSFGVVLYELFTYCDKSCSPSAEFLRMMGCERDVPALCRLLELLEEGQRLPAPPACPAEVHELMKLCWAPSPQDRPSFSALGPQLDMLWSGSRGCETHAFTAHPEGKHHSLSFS
Procedure: as §1

[1] = from C=CCOCc1cc(NC(=O)OC(C)(C)C)cc(Nc2nccc(-c3cccc(COCC=C)c3)n2)c1; rcm bond; Zhan Catalyst 1B; dichloromethane; 6.66 mM; 50.0 °C; 3.0 h

T1 sequence (P00519 whole entry): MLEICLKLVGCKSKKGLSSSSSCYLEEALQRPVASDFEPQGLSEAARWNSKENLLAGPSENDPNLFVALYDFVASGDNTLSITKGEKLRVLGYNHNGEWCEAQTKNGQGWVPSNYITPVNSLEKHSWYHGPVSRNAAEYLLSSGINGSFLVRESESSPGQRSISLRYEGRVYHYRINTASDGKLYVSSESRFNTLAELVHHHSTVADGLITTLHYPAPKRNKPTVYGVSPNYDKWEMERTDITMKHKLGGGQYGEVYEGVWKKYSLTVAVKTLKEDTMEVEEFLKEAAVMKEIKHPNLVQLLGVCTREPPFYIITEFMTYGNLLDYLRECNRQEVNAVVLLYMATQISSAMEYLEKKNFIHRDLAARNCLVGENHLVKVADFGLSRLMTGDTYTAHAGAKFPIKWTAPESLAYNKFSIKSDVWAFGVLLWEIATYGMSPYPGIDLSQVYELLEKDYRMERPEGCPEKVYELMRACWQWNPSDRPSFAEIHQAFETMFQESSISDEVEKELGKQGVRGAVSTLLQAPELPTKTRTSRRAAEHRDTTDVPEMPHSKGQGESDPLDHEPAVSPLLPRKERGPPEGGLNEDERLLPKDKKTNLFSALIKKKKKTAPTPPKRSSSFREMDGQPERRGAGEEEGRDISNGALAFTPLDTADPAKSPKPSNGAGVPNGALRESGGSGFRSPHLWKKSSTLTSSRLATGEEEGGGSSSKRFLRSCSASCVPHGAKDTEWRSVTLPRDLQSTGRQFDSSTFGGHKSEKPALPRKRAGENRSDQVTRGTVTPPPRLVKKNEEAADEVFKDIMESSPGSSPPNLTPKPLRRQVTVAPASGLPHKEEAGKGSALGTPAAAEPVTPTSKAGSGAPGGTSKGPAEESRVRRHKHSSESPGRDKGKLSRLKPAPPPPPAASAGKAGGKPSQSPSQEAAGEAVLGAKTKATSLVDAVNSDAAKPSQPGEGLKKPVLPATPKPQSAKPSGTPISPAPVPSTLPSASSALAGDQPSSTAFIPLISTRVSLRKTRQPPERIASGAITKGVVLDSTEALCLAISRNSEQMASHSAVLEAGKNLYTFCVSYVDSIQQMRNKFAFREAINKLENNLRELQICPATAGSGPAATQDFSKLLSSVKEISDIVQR

Compound	activity at 1 µM (Ab1 (h)) [%]	activity at 1 µM (BTK (h)) [%]	activity at 1 µM (Flt3 (D835Y) (h)) [%]	activity at 1 µM (Flt3 (h)) [%]	activity at 1 µM (JAK3 (h)) [%]	ring closure, yield of all isomers [1] [%]
O=C(/C=C/C(=O)N1CCCC1)Nc1cc2cc(c1)Nc1nccc(n1)-c1cccc(c1)COC/C=C/COC2 [XVI-33]	38	86	10	2	17	
O=C(/C=C/COc1ccc2cc1Nc1nccc(n1)-c1cccc(c1)COC/C=C/COC2)N1CCOCC1 [XVI-22]	81	82	41	96	100	
CN1CCC(NC(=O)/C=C/COc2ccc3cc2Nc2nccc(n2)-c2cccc(c2)COC/C=C/COC3)C1 (stereo not shown) [XVI-24]	81	86	50	82	88	
O=C(C#CCN1CCOCC1)Nc1cc2cc(c1)Nc1nccc(n1)-c1cccc(c1)COC/C=C/COC2 [XVII-3]	8	17	0	2	14	
CC(C)(C)OC(=O)Nc1cc2cc(c1)Nc1nccc(n1)-c1cccc(c1)COCC=CCOC2						50
CN1C/C=C/COCc2cccc(c2)-c2ccnc(n2)Nc2cc(cc(NC(=O)/C=C/CN3CCOCC3)c2)C1 [XVI-30]	55	66	2	7	61	
O=C(/C=C/CN1CCC(O)C1)Nc1cc2cc(c1)Nc1nccc(n1)-c1cccc(c1)COC/C=C/COC2 (stereo not shown) [XVI-18]	2	17	4	19	8	
CN1C/C=C/COCc2cccc(c2)-c2ccnc(n2)Nc2cc(cc(NC(=O)/C=C/C(F)(F)F)c2)C1 [XVI-29]	60	78	3	10	36	
O=C(/C=C/COc1ccc2cc1Nc1nccc(n1)-c1cccc(c1)COC/C=C/COC2)N1CCCC1 [XVI-21]	92	78	44	82	95	
O=C(/C=C/COc1cc2cc(c1)Nc1nccc(n1)-c1cccc(c1)COC/C=C/COC2)N1CCCC1 [XVI-13]	39	49	-2	24	34	
CN1C/C=C/COCc2cccc(c2)-c2ccnc(n2)Nc2cc(N)cc(c2)C1 [XIII-2]	57	71	1	7	77	
CCCC#CC(=O)Nc1cc2cc(c1)Nc1nccc(n1)-c1cccc(c1)COC/C=C/COC2 [XVII-2]	13	36	-1	5	36	
O=C(/C=C/CNC1CCOC1)Nc1cc2cc(c1)Nc1nccc(n1)-c1cccc(c1)CCC/C=C/COC2 (stereo not shown) [XVI-19]	2	17	-3	23	6	

— patent publication US20240425518A1, “N-MACROCYCLIC AMIDE COMPOUNDS, PREPARATION METHODS THEREOF AND APPLICATIONS THEREOF AS MEDICAMENTS” (Chengdu FANXI Biopharma Co., Ltd., priority 2023, published 2024)
